{"source": "the supplement of paper PMC10307832", "experiment_in_all_cases": "relative viability (nuclei count vs DMSO), 5 days (fraction); higher = more cells survive", "key": {"[1]": {"test_system": "CAL-12T", "how_it_was_run": "(§1)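 Lung cancer cell lines in 1536-well plates were dosed by pin tool the day after seeding, either with one drug alone or with a fixed anchor-drug dose plus five library-drug doses (not always all listed) in √10 steps. After 5 days, cells were fixed and their nuclei stained in one step (final 0.05% Triton X-100, 1% formaldehyde, 1 ug/ml Hoechst), then counted on 4× images. Relative viability is the nuclei count in treated wells divided by that in vehicle wells. Values are medians of duplicate plates.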"}, "[2]": {"test_system": "EKVX", "how_it_was_run": "as §1"}, "[3]": {"test_system": "H3255", "how_it_was_run": "as §1"}, "[4]": {"test_system": "HCC-15", "how_it_was_run": "as §1"}, "[5]": {"test_system": "HCC-827", "how_it_was_run": "as §1"}, "[6]": {"test_system": "LCLC-97TM1", "how_it_was_run": "as §1"}, "[7]": {"test_system": "LK-2", "how_it_was_run": "as §1"}, "[8]": {"test_system": "NCI-H1355", "how_it_was_run": "as §1"}, "[9]": {"test_system": "NCI-H1563", "how_it_was_run": "as §1"}, "[10]": {"test_system": "NCI-H1734", "how_it_was_run": "as §1"}, "[11]": {"test_system": "NCI-H1755", "how_it_was_run": "as §1"}, "[12]": {"test_system": "NCI-H1975", "how_it_was_run": "as §1"}, "[13]": {"test_system": "NCI-H2228", "how_it_was_run": "as §1"}, "[14]": {"test_system": "NCI-H2405", "how_it_was_run": "as §1"}, "[15]": {"test_system": "NCI-H322M", "how_it_was_run": "as §1"}, "[16]": {"test_system": "NCI-H520", "how_it_was_run": "as §1"}, "[17]": {"test_system": "NCI-H661", "how_it_was_run": "as §1"}, "[18]": {"test_system": "PC-14", "how_it_was_run": "as §1"}, "[19]": {"test_system": "PC-3 [JPC-3]", "how_it_was_run": "as §1"}, "[20]": {"test_system": "RERF-LC-KJ", "how_it_was_run": "as §1"}}}
{"compound": "Cc1sc2c(c1C)C(c1ccc(Cl)cc1)=N[C@@H](CC(=O)OC(C)(C)C)c1nnc(C)n1-2", "note": "[JQ1] + C[C@]1(O)C[C@@H](c2nc(-c3ccc4ccc(-c5ccccc5)nc4c3)c3c(N)nccn32)C1 [Linsitinib] (partner 1 µM)", "values": [{"measurement": "relative viability", "setting": "[1]; first compound 0.04 µM", "value": 0.793}, {"measurement": "relative viability", "setting": "[1]; first compound 0.1265 µM", "value": 0.794}, {"measurement": "relative viability", "setting": "[1]; first compound 0.4 µM", "value": 0.68}, {"measurement": "relative viability", "setting": "[1]; first compound 1.265 µM", "value": 0.275}, {"measurement": "relative viability", "setting": "[1]; first compound 4 µM", "value": 0.232}, {"measurement": "relative viability", "setting": "[2]; first compound 0.04 µM", "value": 0.935}, {"measurement": "relative viability", "setting": "[2]; first compound 0.1265 µM", "value": 0.813}, {"measurement": "relative viability", "setting": "[2]; first compound 0.4 µM", "value": 1.01}, {"measurement": "relative viability", "setting": "[2]; first compound 1.265 µM", "value": 0.72}, {"measurement": "relative viability", "setting": "[2]; first compound 4 µM", "value": 0.461}, {"measurement": "relative viability", "setting": "[3]; first compound 0.04 µM", "value": 0.913}, {"measurement": "relative viability", "setting": "[3]; first compound 0.1265 µM", "value": 0.728}, {"measurement": "relative viability", "setting": "[3]; first compound 0.4 µM", "value": 0.881}, {"measurement": "relative viability", "setting": "[3]; first compound 1.265 µM", "value": 0.402}, {"measurement": "relative viability", "setting": "[3]; first compound 4 µM", "value": 0.328}, {"measurement": "relative viability", "setting": "[4]; first compound 0.04 µM", "value": 0.732}, {"measurement": "relative viability", "setting": "[4]; first compound 0.4 µM", "value": 0.769}, {"measurement": "relative viability", "setting": "[4]; first compound 1.265 µM", "value": 0.542}, {"measurement": "relative viability", "setting": "[4]; first compound 4 µM", "value": 0.476}, {"measurement": "relative viability", "setting": "[5]; first compound 0.04 µM", "value": 0.921}, {"measurement": "relative viability", "setting": "[5]; first compound 0.4 µM", "value": 1.16}, {"measurement": "relative viability", "setting": "[5]; first compound 1.265 µM", "value": 0.958}, {"measurement": "relative viability", "setting": "[5]; first compound 4 µM", "value": 0.862}, {"measurement": "relative viability", "setting": "[6]; first compound 0.1265 µM", "value": 0.181}, {"measurement": "relative viability", "setting": "[6]; first compound 0.4 µM", "value": 0.212}, {"measurement": "relative viability", "setting": "[6]; first compound 1.265 µM", "value": 0.125}, {"measurement": "relative viability", "setting": "[6]; first compound 4 µM", "value": 0.156}, {"measurement": "relative viability", "setting": "[7]; first compound 0.04 µM", "value": 0.393}, {"measurement": "relative viability", "setting": "[7]; first compound 0.1265 µM", "value": 0.662}, {"measurement": "relative viability", "setting": "[7]; first compound 0.4 µM", "value": 0.233}, {"measurement": "relative viability", "setting": "[7]; first compound 1.265 µM", "value": 0.176}, {"measurement": "relative viability", "setting": "[7]; first compound 4 µM", "value": 0.109}, {"measurement": "relative viability", "setting": "[8]; first compound 0.04 µM", "value": 0.813}, {"measurement": "relative viability", "setting": "[8]; first compound 0.1265 µM", "value": 0.817}, {"measurement": "relative viability", "setting": "[8]; first compound 0.4 µM", "value": 0.814}, {"measurement": "relative viability", "setting": "[8]; first compound 1.265 µM", "value": 0.574}, {"measurement": "relative viability", "setting": "[8]; first compound 4 µM", "value": 0.351}, {"measurement": "relative viability", "setting": "[9]; first compound 0.04 µM", "value": 1.28}, {"measurement": "relative viability", "setting": "[9]; first compound 0.1265 µM", "value": 1.1}, {"measurement": "relative viability", "setting": "[9]; first compound 0.4 µM", "value": 0.976}, {"measurement": "relative viability", "setting": "[9]; first compound 1.265 µM", "value": 0.722}, {"measurement": "relative viability", "setting": "[9]; first compound 4 µM", "value": 0.646}, {"measurement": "relative viability", "setting": "[10]; first compound 0.04 µM", "value": 0.831}, {"measurement": "relative viability", "setting": "[10]; first compound 0.1265 µM", "value": 0.823}, {"measurement": "relative viability", "setting": "[10]; first compound 0.4 µM", "value": 0.879}, {"measurement": "relative viability", "setting": "[10]; first compound 1.265 µM", "value": 0.63}, {"measurement": "relative viability", "setting": "[10]; first compound 4 µM", "value": 0.418}, {"measurement": "relative viability", "setting": "[11]; first compound 0.04 µM", "value": 0.985}, {"measurement": "relative viability", "setting": "[11]; first compound 0.1265 µM", "value": 0.987}, {"measurement": "relative viability", "setting": "[11]; first compound 0.4 µM", "value": 1.01}, {"measurement": "relative viability", "setting": "[11]; first compound 1.265 µM", "value": 0.763}, {"measurement": "relative viability", "setting": "[11]; first compound 4 µM", "value": 0.709}, {"measurement": "relative viability", "setting": "[12]; first compound 0.04 µM", "value": 0.864}, {"measurement": "relative viability", "setting": "[12]; first compound 0.1265 µM", "value": 0.835}, {"measurement": "relative viability", "setting": "[12]; first compound 0.4 µM", "value": 0.723}, {"measurement": "relative viability", "setting": "[12]; first compound 1.265 µM", "value": 0.434}, {"measurement": "relative viability", "setting": "[12]; first compound 4 µM", "value": 0.379}, {"measurement": "relative viability", "setting": "[13]; first compound 0.04 µM", "value": 1}, {"measurement": "relative viability", "setting": "[13]; first compound 0.1265 µM", "value": 0.743}, {"measurement": "relative viability", "setting": "[13]; first compound 0.4 µM", "value": 0.688}, {"measurement": "relative viability", "setting": "[13]; first compound 1.265 µM", "value": 0.404}, {"measurement": "relative viability", "setting": "[13]; first compound 4 µM", "value": 0.357}, {"measurement": "relative viability", "setting": "[14]; first compound 0.04 µM", "value": 0.919}, {"measurement": "relative viability", "setting": "[14]; first compound 0.4 µM", "value": 0.779}, {"measurement": "relative viability", "setting": "[14]; first compound 1.265 µM", "value": 0.535}, {"measurement": "relative viability", "setting": "[14]; first compound 4 µM", "value": 0.537}, {"measurement": "relative viability", "setting": "[15]; first compound 0.04 µM", "value": 0.546}, {"measurement": "relative viability", "setting": "[15]; first compound 0.1265 µM", "value": 0.935}, {"measurement": "relative viability", "setting": "[15]; first compound 0.4 µM", "value": 0.874}, {"measurement": "relative viability", "setting": "[15]; first compound 1.265 µM", "value": 0.474}, {"measurement": "relative viability", "setting": "[15]; first compound 4 µM", "value": 0.462}, {"measurement": "relative viability", "setting": "[16]; first compound 0.04 µM", "value": 0.962}, {"measurement": "relative viability", "setting": "[16]; first compound 0.1265 µM", "value": 1.26}, {"measurement": "relative viability", "setting": "[16]; first compound 0.4 µM", "value": 0.821}, {"measurement": "relative viability", "setting": "[16]; first compound 1.265 µM", "value": 0.435}, {"measurement": "relative viability", "setting": "[16]; first compound 4 µM", "value": 0.287}, {"measurement": "relative viability", "setting": "[17]; first compound 0.04 µM", "value": 0.635}, {"measurement": "relative viability", "setting": "[17]; first compound 0.1265 µM", "value": 0.512}, {"measurement": "relative viability", "setting": "[17]; first compound 0.4 µM", "value": 0.391}, {"measurement": "relative viability", "setting": "[17]; first compound 1.265 µM", "value": 0.305}, {"measurement": "relative viability", "setting": "[17]; first compound 4 µM", "value": 0.352}, {"measurement": "relative viability", "setting": "[18]; first compound 0.04 µM", "value": 0.936}, {"measurement": "relative viability", "setting": "[18]; first compound 0.1265 µM", "value": 0.735}, {"measurement": "relative viability", "setting": "[18]; first compound 0.4 µM", "value": 0.779}, {"measurement": "relative viability", "setting": "[18]; first compound 1.265 µM", "value": 0.611}, {"measurement": "relative viability", "setting": "[18]; first compound 4 µM", "value": 0.356}, {"measurement": "relative viability", "setting": "[19]; first compound 0.04 µM", "value": 0.942}, {"measurement": "relative viability", "setting": "[19]; first compound 0.1265 µM", "value": 0.998}, {"measurement": "relative viability", "setting": "[19]; first compound 0.4 µM", "value": 1.06}, {"measurement": "relative viability", "setting": "[19]; first compound 1.265 µM", "value": 0.79}, {"measurement": "relative viability", "setting": "[19]; first compound 4 µM", "value": 0.666}, {"measurement": "relative viability", "setting": "[20]; first compound 0.04 µM", "value": 0.865}, {"measurement": "relative viability", "setting": "[20]; first compound 0.1265 µM", "value": 1.07}, {"measurement": "relative viability", "setting": "[20]; first compound 0.4 µM", "value": 0.91}, {"measurement": "relative viability", "setting": "[20]; first compound 1.265 µM", "value": 0.782}, {"measurement": "relative viability", "setting": "[20]; first compound 4 µM", "value": 0.631}]}
